Tests used:
IRAK1 enzyme = molecular target: T1, IRAK1 enzyme (Homo sapiens, UniProt P51617); test: IRAK1 enzyme activity inhibition (ADP-Glo, Promega kit); assay type: biochemical; conditions: for inhibition at 0.1 µM: test compound 0.1 uM
T1 construct: purchased Promega VA7477
Protocol: An experiment on IRAK1 enzyme activity inhibition of the compound of the present invention was conducted.
An IRAK1 enzyme kit (purchased from Promega, product number: VA7477) was used to dilute a mixed solution between 0.1 µg/µL of protein kinase B (AKT), which is an enzyme-reactive substrate, and 1.25 mM of ATP with a reaction buffer (40 mM Tris-HCl, pH 7.5; 20 mM MgCl2; 0.1 mg/mL BSA; 50 µM DTT) according to the instructions, so as to dispense 2 µL in a 384-well white plate, and then to add 1 µL of a test compound, which was gradient diluted starting from 1 mM, to a 384-well white plate. After that, an IRAK1 enzyme was diluted with a reaction buffer to a final concentration of 5 ng/µL, then 2 µL/well was dispensed into a 384-well white plate and reacted at 37°C for 60 minutes. After completion of a reaction, an ADP-GloTM enzyme test kit (purchased from Promega, product number: V9102) was used to add 5 µL of ADP-Glo reaction reagent and cause a reaction at 37°C for 40 minutes, and then 10 µL of enzyme chromogenic reagent was added again to measure a luminescence signal using equipment for measuring absorbance (THECAN, Microplate Reader). An activity inhibition rate was calculated from a measured value, and a 50% inhibition concentration (IC50 value) was analyzed through a non-linear regression analysis based on the % inhibition for each concentration of the test compound, and is shown in Table 3.

IRAK4 enzyme = molecular target: T2, IRAK4 enzyme (Homo sapiens, UniProt Q9NWZ3); test: IRAK4 enzyme activity inhibition (ADP-Glo, Promega kit); assay type: biochemical
T2 construct: purchased Promega V2621
T2 sequence (Q9NWZ3 1-460): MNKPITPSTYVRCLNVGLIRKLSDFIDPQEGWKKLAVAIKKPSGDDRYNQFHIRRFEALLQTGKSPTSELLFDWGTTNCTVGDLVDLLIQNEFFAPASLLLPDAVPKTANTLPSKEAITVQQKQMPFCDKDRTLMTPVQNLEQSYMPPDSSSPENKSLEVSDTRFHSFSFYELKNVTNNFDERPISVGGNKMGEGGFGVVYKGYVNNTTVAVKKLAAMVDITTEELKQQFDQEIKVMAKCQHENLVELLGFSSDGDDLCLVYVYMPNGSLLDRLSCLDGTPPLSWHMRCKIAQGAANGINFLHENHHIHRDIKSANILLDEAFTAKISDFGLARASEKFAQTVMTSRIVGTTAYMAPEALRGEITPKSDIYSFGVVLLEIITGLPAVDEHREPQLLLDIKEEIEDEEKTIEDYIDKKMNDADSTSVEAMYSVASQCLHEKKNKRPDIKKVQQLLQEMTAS
Protocol: An experiment on IRAK4 enzyme activity inhibition of the compound of the present invention was conducted.
An IRAK4 enzyme kit (purchased from Promega, product number: V2621) was used to dilute a mixed solution between 0.1 µg/µL of myelin basic protein (MBP), which is an enzyme-reactive substrate, and 1.25 mM of ATP with a reaction buffer (40 mM Tris-HCl, pH 7.5; 20 mM MgCl2; 0.1 mg/mL BSA; 50 µM DTT) according to the instructions, so as to dispense 2 µL in a 384-well white plate, and then to add 1 µL of a test compound, which was gradient diluted starting from 1 mM, to a 384-well plate. After that, an IRAK4 enzyme was diluted with a reaction buffer to a final concentration of 5 ng/µL, then 2 µL/well was dispensed into a 384-well white plate and reacted at 37°C for 60 minutes. After completion of a reaction, an ADP-GloTM enzyme test kit (purchased from Promega, product number: V9102) was used to add 5 µL of ADP-Glo reaction reagent and cause a reaction at 37°C for 40 minutes, and then 10 µL of enzyme chromogenic reagent was added again to measure a luminescence signal using equipment for measuring absorbance (THECAN, Microplate Reader). An activity inhibition rate was calculated from a measured value, and a 50% inhibition concentration (IC50 value) was analyzed through a non-linear regression analysis based on the % inhibition for each concentration of the test compound, and is shown in Table 2.

T1 sequence (P51617 whole entry): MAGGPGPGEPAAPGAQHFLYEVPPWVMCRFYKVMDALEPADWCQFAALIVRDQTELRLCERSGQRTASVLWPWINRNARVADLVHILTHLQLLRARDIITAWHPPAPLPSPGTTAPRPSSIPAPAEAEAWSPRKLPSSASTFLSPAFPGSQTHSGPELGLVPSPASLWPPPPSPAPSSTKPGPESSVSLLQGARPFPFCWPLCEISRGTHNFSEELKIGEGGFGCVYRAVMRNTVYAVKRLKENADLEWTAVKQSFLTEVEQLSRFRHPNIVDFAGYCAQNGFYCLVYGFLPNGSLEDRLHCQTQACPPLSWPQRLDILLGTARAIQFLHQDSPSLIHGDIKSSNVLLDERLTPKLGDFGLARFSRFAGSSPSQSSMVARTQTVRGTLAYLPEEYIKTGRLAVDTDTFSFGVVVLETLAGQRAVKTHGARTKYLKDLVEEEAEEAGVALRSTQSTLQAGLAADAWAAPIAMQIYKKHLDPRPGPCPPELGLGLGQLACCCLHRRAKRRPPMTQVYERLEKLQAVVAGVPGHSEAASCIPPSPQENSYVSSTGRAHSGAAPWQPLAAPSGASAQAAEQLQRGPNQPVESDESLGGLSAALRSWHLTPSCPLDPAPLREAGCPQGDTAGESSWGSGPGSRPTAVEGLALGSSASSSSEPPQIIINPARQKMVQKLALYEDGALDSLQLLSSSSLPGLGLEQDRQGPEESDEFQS

| Compound | inhibition at 0.1 µM (IRAK1 enzyme) | IC50 (IRAK4 enzyme) | inhibition at 0.1 µM (IRAK4 enzyme; test compound 0.1 uM) | inhibition at 1 µM (IRAK1 enzyme; test compound 1 uM) | inhibition at 1 µM (IRAK4 enzyme; test compound 1 uM) | IRAK1 %enzyme inhibition (1 uM) (IRAK1 enzyme; test compound 1 uM) | IRAK4 %enzyme inhibition (0.1 uM) (IRAK4 enzyme; test compound 0.1 uM) | IRAK4 %enzyme inhibition (1 uM) (IRAK4 enzyme; test compound 1 uM) |
| --- | --- | --- | --- | --- | --- | --- | --- | --- |
| CN(C)c1cc2nn(CCC(C)(C)O)cc2cc1NC(=O)c1cccc([N+](=O)[O-])c1 [Example 38, N-(6-(dimethylamino)-2-(3-hydroxy-3-methylbutyl)-2H-indazol-5-yl)-3-nitrobenzamide] | 4.6% | 5.1 nM | 87.9% | – | – | – | – | – |
| O=C(Nc1cc2cn(CCN3CCOCC3)nc2cc1N1CCOCC1)c1cccc([N+](=O)[O-])c1 [Example 19, N-(6-morpholino-2-(2-morpholinoethyl)-2H-indazol-5-yl)-3-nitrobenzamide] | – | 31.7 nM | 84.7% | 38.7% | 90.1% | – | – | – |
| CC(C)(O)CCn1cc2cc(NC(=O)c3cccc([N+](=O)[O-])c3)c(-c3ccc(C(=O)NCC(N)=O)cc3)cc2n1 [Example 43, N-(6-(4-((2-amino-2-oxoethyl)carbamoyl)phenyl)-2-(3-hydroxy-3-methylbutyl)-2H-indazol-5-yl)-3-nitrobenzamide] | 1.7% | – | 63% | – | – | – | – | – |
| CC(C)(O)CCn1cc2cc(NC(=O)c3cccc([N+](=O)[O-])c3)c(-c3ccc(N4CCOCC4)cc3)cc2n1 [Example 37, N-(2-(3-hydroxy-3-methylbutyl)-6-(4-morpholinophenyl)-2H-indazol-5-yl)-3-nitrobenzamide] | 26.3% | – | 52.2% | 31% | – | – | – | – |
| CN(C)CCn1cc2cc(NC(=O)c3cccc(C(N)=O)c3)c(-c3ccsc3)cc2n1 [Example 1, N-(2-(2-(dimethylamino)ethyl)-6-(thiophen-3-yl)-2H-indazol-5-yl)isophthalamide] | 42.4% | – | 19.1% | – | – | – | – | – |
| CC(C)(O)Cn1cc2cc(NC(=O)c3cccc([N+](=O)[O-])c3)c(N3CCSCC3)cc2n1 [Example 45, N-(2-(2-hydroxy-2-methylpropyl)-6-thiomorpholino-2H-indazol-5-yl)-3-nitrobenzamide] | – | – | 59.6% | 0% | 75% | – | – | – |
| CS(=O)(=O)CCn1cc2cc(NC(=O)c3cccc(S(N)(=O)=O)c3)c(N3CCOCC3)cc2n1 [Example 53, N-(2-(2-(methylsulfonyl)ethyl)-6-morpholino-2H-indazol-5-yl)-3-sulfamoylbenzamide] | 13.9% | – | 2.7% | – | – | – | – | – |
| CC(C)(O)CCn1cc2cc(NC(=O)c3cccc(S(N)(=O)=O)c3)c(-c3ccc(CN4CCOCC4)cc3)cc2n1 [Example 39, N-(2-(3-hydroxy-3-methylbutyl)-6-(4-(morpholinomethyl)phenyl)-2H-indazol-5-yl)-3-sulfamoylbenzamide] | 23% | – | 69.7% | 35.2% | – | – | – | – |
| CC(C)(O)CCn1cc2cc(NC(=O)c3cccc(C(N)=O)c3)c(N3CCSCC3)cc2n1 [Example 33, N-(2-(3-hydroxy-3-methylbutyl)-6-thiomorpholino-2H-indazol-5-yl)isophthalamide] | 24% | 22.1 nM | 71.3% | 39.3% | 95.6% | – | – | – |
| CNC(=O)[C@@H](C)NC(=O)c1cncc(-c2cc3nn(CCC(C)(C)O)cc3cc2NC(=O)c2cccc(S(N)(=O)=O)c2)c1 [Example 51, (R)-5-(2-(3-hydroxy-3-methylbutyl)-5-(3-sulfamoylbenzamido)-2H-indazol-6-yl)-N-(1-(methylamino)-1-oxopropan-2-yl)nicotinamide] | 0% | – | 48.8% | – | – | – | – | – |
| CC(C)(O)CCn1cc2cc(NC(=O)c3cccc(C(N)=O)c3)c(-c3ccc(C(=O)NCc4ccoc4)cc3)cc2n1 [Example 49, N-(6-(4-((furan-3-ylmethyl)carbamoyl)phenyl)-2-(3-hydroxy-3-methylbutyl)-2H-indazol-5-yl)isophthalamide] | 27.7% | – | 55.4% | 31.6% | – | – | – | – |
| NC(=O)COCCn1cc2cc(NC(=O)c3cccc(S(N)(=O)=O)c3)c(N3CCOCC3)cc2n1 [Example 17, N-(2-(2-(2-amino-2-oxoethoxy)ethyl)-6-morpholino-2H-indazol-5-yl)-3-sulfamoylbenzamide] | 33.1% | 330 nM | 76.7% | 63.4% | – | – | – | – |
| CC(C)(O)CCn1cc2cc(NC(=O)c3cccc(S(N)(=O)=O)c3)c(-c3ccc(C(N)=O)cc3)cc2n1 [Example 46, N-(6-(4-carbamoylphenyl)-2-(3-hydroxy-3-methylbutyl)-2H-indazol-5-yl)-3-sulfamoylbenzamide] | 3.2% | – | 57.5% | – | – | – | – | – |
| CC(C)(O)CCn1cc2cc(NC(=O)c3cccc(-c4cn[nH]c4)n3)c(N3CCOCC3)cc2n1 [Example 20, N-(2-(3-hydroxy-3-methylbutyl)-6-morpholino-2H-indazol-5-yl)-6-(1H-pyrazol-4-yl)picolinamide] | 16.5% | 15.5 nM | 89.6% | 57% | – | – | – | – |
| CC(C)(O)CCn1cc2cc(NC(=O)c3cccc(S(N)(=O)=O)c3)c(N3CCC(O)CC3)cc2n1 [Example 31, N-(2-(3-hydroxy-3-methylbutyl)-6-(4-hydroxypiperidin-1-yl)-2H-indazol-5-yl)-3-sulfamoylbenzamide] | 30.6% | 13.4 nM | 88% | 66.7% | – | – | – | – |
| COC(=O)CCNC(=O)c1cncc(-c2cc3nn(CCC(C)(C)O)cc3cc2NC(=O)c2cccc(S(N)(=O)=O)c2)c1 [Example 48, Methyl 3-(5-(2-(3-hydroxy-3-methylbutyl)-5-(3-sulfamoylbenzamido)-2H-indazol-6-yl)nicotinamido)propanoate] | 39.7% | – | 56.7% | – | – | – | – | – |
| CC(C)(O)CCn1cc2cc(NC(=O)c3cccc(-c4ccsc4)n3)c(N3CCOCC3)cc2n1 [Example 36, N-(2-(3-hydroxy-3-methylbutyl)-6-morpholino-2H-indazol-5-yl)-6-(thiophen-3-yl)picolinamide] | 5.7% | – | 55.2% | 12.9% | – | – | – | – |
| CC(C)(O)CCn1cc2cc(NC(=O)c3cccc(C(N)=O)c3)c(N3CCOCC3)cc2n1 [Example 25, N-(2-(3-hydroxy-3-methylbutyl)-6-morpholino-2H-indazol-5-yl)isophthalamide] | 24.9% | 78.5 nM | 81.3% | 54.6% | – | – | – | – |
| N-(1-(3-hydroxy-3-methylbutyl)-6-morpholino-1H-indazol-5-yl)-3-nitrobenzamide [Example 28] | – | – | – | – | – | 9.10% | 56.1% | 89.9% |
| CS(=O)(=O)CCn1cc2cc(NC(=O)c3cccc(S(=O)(=O)N4CCOCC4)c3)c(N3CCOCC3)cc2n1 [Example 14, N-(2-(2-(methylsulfonyl)ethyl)-6-morpholino-2H-indazol-5-yl)-3-(morpholinosulfonyl)benzamide] | – | – | 21.1% | 0% | 35.6% | – | – | – |
| CC(C)(O)CCn1cc2cc(NC(=O)c3ccc(F)c([N+](=O)[O-])c3)c(N3CCOCC3)cc2n1 [Example 26, 4-fluoro-N-(2-(3-hydroxy-3-methylbutyl)-6-morpholino-2H-indazol-5-yl)-3-nitrobenzamide] | 31.7% | 192 nM | 71.3% | 40.2% | – | – | – | – |

— patent EP4737451A1 (Dong Wha Pharm. Co., Ltd., priority 2023, dated 2025)
